Assay results taken from patent US20040024024A1, “Aromatic sulfone hydroxamates and their use as protease inhibitors” (priority 2001, published 2004).
pKi: −log10 of the molar value.

Assays:
Assay in all cases: In vitro MMP inhibition, Ki determination (fluorogenic substrate II)
Type in all cases: biochemical
Details in all cases: value in parentheses
Human recombinant MMP-1 = biological target: T1, Human recombinant MMP-1 (Homo sapiens, UniProt P03956)
T1 construct: made in house; host or cells: MMP-1-transfected HT-1080 cells (spent media)
T1 sequence (P03956 100-469): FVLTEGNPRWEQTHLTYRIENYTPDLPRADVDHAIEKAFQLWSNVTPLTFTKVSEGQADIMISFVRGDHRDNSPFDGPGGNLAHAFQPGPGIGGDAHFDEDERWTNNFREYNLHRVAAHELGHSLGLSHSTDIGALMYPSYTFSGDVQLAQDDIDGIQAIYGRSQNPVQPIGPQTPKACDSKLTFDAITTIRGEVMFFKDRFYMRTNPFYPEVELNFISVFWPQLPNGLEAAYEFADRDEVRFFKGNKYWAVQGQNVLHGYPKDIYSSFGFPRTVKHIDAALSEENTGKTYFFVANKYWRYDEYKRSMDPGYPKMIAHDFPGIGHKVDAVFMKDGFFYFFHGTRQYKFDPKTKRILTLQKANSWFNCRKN
Procedure, shortened: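 Activated human recombinant MMP-1 (APMA- or trypsin-activated; proenzyme from transfected HT-1080 cells) incubated 1 hr at room temperature with 4 μM MCA/Dpa fluorogenic substrate II at or below Km in Tris buffer pH 7.5 with CaCl2. Fluorescence ex 330/em 420 nm; Ki from Morrison-equation non-linear regression, uncorrected for substrate.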

Human recombinant MMP-9 = biological target: T2, Human recombinant MMP-9 (Homo sapiens, UniProt P14780)
T2 construct: made in house; host or cells: MMP-9-transfected HT1080 cells (spent media)
Procedure, shortened: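 MMP-9 proenzyme purified from transfected HT1080 cell media, activated with APMA, trypsin or recombinant MMP-3; hydroxamates diluted in pH 7.5 Tris/NaCl/CaCl2 buffer. Cleavage of 4 μM MCA/Dpa substrate II followed by fluorescence (ex 330/em 420 nm), 1 h at room temperature. Ki from Morrison-equation fit, substrate at/below Km, uncorrected.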

Human recombinant MMP-13 = biological target: T3, Human recombinant MMP-13 (Homo sapiens, UniProt P45452)
T3 construct: made in house; host or cells: baculovirus / insect cells
Procedure, shortened: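 Baculovirus-expressed proenzyme, APMA-activated; 4 μM fluorogenic MCA/Dpa peptide substrate (II), at or below Km, in Tris buffer pH 7.5 with CaCl2, 1 hr at room temperature. Fluorescence at 330/420 nm; Ki from non-linear regression with Morrison's equation, not corrected for substrate.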

T2 sequence (P14780 107-707 limits assumed): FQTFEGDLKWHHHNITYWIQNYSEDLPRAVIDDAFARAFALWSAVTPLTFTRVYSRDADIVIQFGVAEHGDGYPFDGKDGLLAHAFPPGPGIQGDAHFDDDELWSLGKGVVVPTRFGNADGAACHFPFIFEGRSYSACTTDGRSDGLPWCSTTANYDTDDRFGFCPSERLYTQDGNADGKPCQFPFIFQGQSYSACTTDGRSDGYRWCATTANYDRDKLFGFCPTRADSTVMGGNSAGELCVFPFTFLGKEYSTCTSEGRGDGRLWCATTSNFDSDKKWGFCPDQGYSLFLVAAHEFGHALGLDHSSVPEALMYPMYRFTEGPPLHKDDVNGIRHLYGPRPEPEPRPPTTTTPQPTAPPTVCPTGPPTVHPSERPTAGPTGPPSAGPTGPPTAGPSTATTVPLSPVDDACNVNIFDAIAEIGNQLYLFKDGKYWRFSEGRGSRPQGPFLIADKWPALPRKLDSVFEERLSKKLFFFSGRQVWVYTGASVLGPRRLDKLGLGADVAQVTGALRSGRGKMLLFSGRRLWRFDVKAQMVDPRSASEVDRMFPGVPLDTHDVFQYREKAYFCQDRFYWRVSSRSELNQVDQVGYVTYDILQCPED

| Compound | pKi (Human recombinant MMP-1) | pKi (Human recombinant MMP-9) | pKi (Human recombinant MMP-13) |
| --- | --- | --- | --- |
| O=C(NO)C1(S(=O)(=O)c2ccc(OCCOc3cncnc3)cc2)CCOCC1 [Example 554] | < 5.00 | 6.35 | 7.84 |
| O=C(NO)C1(S(=O)(=O)c2ccc(OCCCOCc3ccncc3)cc2)CCOCC1 [Example 555] | < 5.00 | 7.30 | 9.58 |
| O=C(NO)C1(S(=O)(=O)c2ccc(OCCc3ccccn3)cc2)CCOCC1 [Example 556] | 5.05 | 6.67 | 7.27 |
| O=C(NO)C1(S(=O)(=O)c2ccc(OCCc3cccnc3)cc2)CCOCC1 [Example 557] | < 5.00 | 7.47 | 8.43 |

The remaining lines, values ahead:

| pKi (Human recombinant MMP-1) | pKi (Human recombinant MMP-9) | pKi (Human recombinant MMP-13) | Compound |
| --- | --- | --- | --- |
| < 5.00 | 7.24 | 8.82 | O=C(NO)C1(S(=O)(=O)c2ccc(OCCCOc3cncnc3)cc2)CCOCC1 [Example 559] |
| < 5.00 | 8.14 | 9.21 | O=C(NO)C1(S(=O)(=O)c2ccc(OCCCOc3cccnc3)cc2)CCOCC1 [Example 560] |
| 5.56 | 6.10 | 8.53 | O=C(NCCOc1ccc(S(=O)(=O)C2(C(=O)NO)CCOCC2)cc1)c1c[nH]c2ccccc12 [Example 562] |
| < 5.00 | 6.15 | 9.57 | O=C(NCCSc1ccc(S(=O)(=O)C2(C(=O)NO)CCOCC2)cc1)c1nc2ccccc2s1 [Example 598] |
| < 5.00 | 7.12 | 9.80 | C#Cc1ccc(-c2cccc(CCCOc3ccc(S(=O)(=O)C4(C(=O)NO)CCN(CCOC)CC4)cc3)c2)cc1 [Example 646] |
